Here are results for one compound from article PMC9975351 (Frontiers in Pharmacology, 2023).

The target of data set [1] is T1, CYP2A6 (Homo sapiens, UniProt P11509).
T1 sequence (P11509 1-494): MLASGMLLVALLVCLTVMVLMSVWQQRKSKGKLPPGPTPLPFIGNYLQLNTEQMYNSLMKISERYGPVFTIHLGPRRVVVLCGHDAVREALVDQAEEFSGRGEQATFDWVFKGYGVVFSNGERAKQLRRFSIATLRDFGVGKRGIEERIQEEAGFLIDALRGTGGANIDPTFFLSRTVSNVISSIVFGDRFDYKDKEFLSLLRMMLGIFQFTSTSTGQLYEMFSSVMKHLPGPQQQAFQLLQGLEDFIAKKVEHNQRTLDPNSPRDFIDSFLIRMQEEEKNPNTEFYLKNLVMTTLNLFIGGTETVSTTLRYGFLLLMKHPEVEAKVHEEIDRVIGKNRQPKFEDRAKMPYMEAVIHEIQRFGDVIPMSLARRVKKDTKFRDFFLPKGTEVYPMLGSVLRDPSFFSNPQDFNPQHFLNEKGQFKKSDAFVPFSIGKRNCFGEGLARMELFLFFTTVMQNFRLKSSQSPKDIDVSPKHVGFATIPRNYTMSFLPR
The data set is described as follows: CYP cocktail inhibition assay in pooled HLMs, CYP2A6. To be noted: substrate cocktail. On the procedure: The drug–drug interaction potential was evaluated using a CYP cocktail assay that involved microsomal incubation and NADPH, as described elsewhere ([Lee et al., 2012]). […] The first reactions were initiated by NADPH addition, and each mixture was incubated in a shaking water bath at 37°C for 30 min. The final incubation was performed for 10 min with a total volume of 200 µL by adding substrates (tolbutamide (set B) as a CYP2C9 selective substrate, midazolam (set A) and testosterone (set B) as CYP3A4 selective substrates) and NADPH. The reaction was stopped and quenched by adding 200 µL of ice-cold acetonitrile containing 50 nM CBZ as internal standard, then centrifuged at 3,000 x g for 20 min. The supernatants were injected in LC-QTOF system. IC50 shift values were calculated as the ratio of the IC50 value obtained after pre-incubation without NADPH divided by the IC50 value obtained after 30 min incubation with NADPH.
The LC-QTOF system consisted of an Exion AD LC device (AB Sciex, Framingham, MA, United States) and a TripleTOF 6,600 + system (AB Sciex) equipped with an IonDrive Turbo V source operated in positive TOF information-dependent acquisition (IDA) MS2 scan mode. The TOF scan dwell time was 50 ms, and the 20 × IDA MS2 scan time was acquired with a 30-ms dwell time. […]

Data set [2] concerns the target T2, CYP3A4 (Homo sapiens, UniProt P08684).
T2 construct: purchased Cypex (Dundee, UK); host or cells: bactosomes (bacterial membranes)
The data set can be described thus: Reaction phenotyping with recombinant CYP3A4. It is filed as in vitro ADME. To be noted: 1 µM, 50 pmol/mL recombinant CYP3A4, NADPH, 60 min, vs control. On the procedure: Reactions were conducted in triplicate using 0.1 M PPB (pH 7.4) in eight-well tube strips in an 8 × 12 rack. […] The mixture was pre-incubated at 37°C with shaking at approximately 100 rpm for 5 min. Reactions were initiated by the addition of the NADPH-regenerating system and quenched with 200 µL ice-cold acetonitrile containing 50 nM CBZ. The samples were centrifuged at 1,000 × g and 4°C for 20 min, and the supernatants were subjected to LC-QTOF HRMS. […] The reaction was incubated, initiated, terminated, centrifuged then analyzed using the same method described above.
Reaction phenotyping is the identification of isoforms involved in drug metabolism and is important for the decipherment of drug biotransformation pathways and understanding of possible drug-drug interactions. M6, M7, and M8 were also detected in recombinant CYP incubations.

Data set [3] can be described thus: Metabolic stability and metabolite formation in pooled human liver microsomes with NADPH and/or UDPGA. Format: in vitro ADME. Conditions: for Concentration remaining, % of the initial concentration: 1 µM, HLMs; for Hepatic clearance CLh / CLint scaled at 1 µM: in vitro-in vivo extrapolation, well-stirred model; for half-life at 1 µM / microsomal CLint at 1 µM / CLint scaled at 1 µM: human, microsomes; for half-life at 1 µM: pH 7.4, 1 µM compound, read-out: Half-life; for microsomal CLint at 1 µM: read-out: Intrinsic clearance (in vitro) Clint; for CLint scaled at 1 µM: read-out: Intrinsic clearance (in vivo) CLint. The method, then:
Microsomal incubation was conducted in triplicate using 0.1 M potassium phosphate buffer (PPB, pH 7.4) in eight-well tube strips in an 8 × 12 rack (1.2 mL; VWR, Emeryville, CA, United States). […] The mixture was pre-incubated at 37°C with shaking at approximately 100 rpm for 5 min. UGT glucuronidation was performed with HLMs (1 mg/mL) and alamethicin (25 μg/mg microsomal protein) in a 100-mM PPB (pH 7.4) solution on ice for 15 min. […] CYP, UGT, and combined reactions were initiated by addition of the NADPH regenerating system, UDPGA (1 mM), and both, respectively. […] The incubation mixtures were then centrifuged at 2,000 × g and 4°C for 20 min, and the supernatants were analyzed by LC-QTOF HRMS.
The incubation mixtures were pre-incubated at 37°C in a shaking water bath at approximately 100 rpm for 5 min. Reactions were initiated by the addition of an NADPH-regenerating system. The reaction was terminated, centrifuged then analyzed using the same method described above.
In the microsomal stability analysis, degradation half-life (t½) values were calculated using the following equation: t½=0.693/k where k is the first-order degradation rate constant, estimated by one-phase exponential-decay non-linear regression of the degradation time-course data using Graph Pad Prism 8.0 (Graph Pad Software Inc., San Diego, CA, United States). In vitro metabolic stability parameters, microsomal intrinsic clearance (CLint,mic), apparent intrinsic clearance (CL′int), and hepatic clearance (CLh), were calculated according to the well-stirred model approach ([Pang and Rowland, 1977]; [Baranczewski et al., 2006]). The apparent kinetic parameters of GRL0617 metabolism were determined by fitting a one-enzyme Michaelis-Menten equation. […] All data are presented as mean ± SD. Data were compared between groups using the unpaired Student’s t-test. The significance level was set at p < 0.05, unless indicated otherwise.

The structures appear in SMILES notation. Read-outs that look alike come from different tables or passages of the source.

T2 sequence (P08684 whole entry): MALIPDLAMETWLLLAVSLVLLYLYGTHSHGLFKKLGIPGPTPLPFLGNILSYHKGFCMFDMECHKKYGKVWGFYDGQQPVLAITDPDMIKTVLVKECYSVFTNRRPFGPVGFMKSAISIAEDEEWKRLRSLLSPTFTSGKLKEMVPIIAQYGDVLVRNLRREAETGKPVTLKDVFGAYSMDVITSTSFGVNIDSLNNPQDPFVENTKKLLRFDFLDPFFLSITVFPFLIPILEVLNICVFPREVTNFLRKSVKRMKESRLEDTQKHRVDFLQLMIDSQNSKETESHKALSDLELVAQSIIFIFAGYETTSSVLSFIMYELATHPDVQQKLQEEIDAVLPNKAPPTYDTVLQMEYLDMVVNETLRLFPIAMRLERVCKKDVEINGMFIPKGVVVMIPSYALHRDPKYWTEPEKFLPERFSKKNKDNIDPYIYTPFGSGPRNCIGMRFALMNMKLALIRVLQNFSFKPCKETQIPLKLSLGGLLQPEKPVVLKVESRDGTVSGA

Turning to `Cc1ccc(N)cc1C(=O)N[C@H](C)c1cccc2ccccc12` [GRL0617, 5-amino-2-methyl-N-[(1R)-1-(1-naphthalenyl)ethyl]benzamide], the “Concentrations at which CYP2A6 was inhibited” value in data set [1] is ≥ 50 µM. Moreover, the GRL0617 level remaining in data set [2] is listed as 9.48% ± 1.26%. Also, the Half-life in data set [3] (1 µM compound, 1 mg/mL pooled HLMs with NADPH (phase I)) is on record as 26.4 min. Moreover, the “Concentration remaining, % of the initial concentration” value in data set [3] (60 min incubation with NADPH) was 44.5% ± 5.3%; in data set [3] (60 min incubation with NADPH + UDPGA) it was 47.2% ± 7.5%; in data set [3] (60 min incubation with UDPGA), 93.4% ± 6.1%. The “Direct UGT glucuronidation” value in data set [3] (HLM with UDPGA only) is on record as “No direct UGT glucuronidation was detected”. The “Hepatic clearance CLh” value in data set [3] (NADPH + UDPGA) is reported as 11.1 mL/min/kg; in data set [3] (NADPH) it was 11.7 mL/min/kg. In addition, the half-life at 1 µM in data set [3] (1 mg/mL pooled HLMs with NADPH (phase I)) is < 30 min; in data set [3] (1 mg/mL pooled HLMs with NADPH + UDPGA (phase I + II)), 29.5 min. Also, the microsomal CLint at 1 µM in data set [3] (pH 7.4, HLMs with NADPH + UDPGA) was determined as 23.5 µL/min/mg; in data set [3] (pH 7.4, HLMs with NADPH), 26.3 µL/min/mg. Further, the CLint scaled at 1 µM was 24.1 mL/min/kg in data set [3] (pH 7.4, NADPH + UDPGA) and 27 mL/min/kg in data set [3] (pH 7.4, NADPH).
